Laboratory results from patent US12606529B2, “Sulfur and amide tropolone inhibitors of nucleotidyl transferases and uses therefor” (Saint Louis University, priority 2019, dated 2026).
Values after ≈ are worked out from the molar mass of the structure shown. Read-outs that look alike come from different tables or passages of the source.

Columns and labels:
HBV replication = HBV replication inhibition in HepDES19 cells (strand-preferential qPCR); conditions: for EC50: Hepatitis B virus
Description: Cells used for toxicity and HBV studies.
HBV replication inhibition studies. HepDES19 cells were seeded in 96-well plates at 4×10^4 cells per well in the absence of tetracycline. Test compounds in a final DMSO concentration of 1% were applied to cells 48 hours after induction of HBV replication and cells were incubated with compounds for 72 hours. Cells were washed in 200 μL of phosphate buffered saline (PBS) and lysed in 150 μL of core lysis buffer (10 mM Tris pH 7.4, 1% Tween20, 150 mM NaCl). Cells were incubated at room temperate on an orbital shaker at 350 rpm for 40 minutes. Cell lysate was transferred to a 96 well polymerase chain reaction (PCR) plate and centrifuged at 3300×g for 5 minutes. The supernatant (50 μL) from the cell lysate was transferred to a 96-well PCR plate and mixed with 20 units of micrococcal nuclease and 100 μM CaCl2. The lysate was incubated for 1 hour at 37° C., and then the nuclease was inactivated at 70° C. for ten minutes. Qiagen protease (0.005 Anson units) was added to the lysate and the mixture was incubated overnight. Qiagen protease was then inactivated at 95° C. for ten minutes.
The crude lysate was used as the template for strand-preferential quantitative polymerase chain reaction (q-PCR) analysis. Quantitative PCR was performed with 40 cycles of 95° C. for 15 s and 60° C. for 1 minute employing the Kappa Probe Force universal PCR master mix.

HSV-1 = assay: Anti-HSV-1 replication assay (Vero cells, plaque titer); type: cell-based, herpes simplex virus 1; conditions: for log reduction at 0.33 µM / log reduction at 5 µM / log reduction at 1 µM: Human alphaherpesvirus 1, Vero, values separated by / are repeats; for log reduction at 0.33 µM: compound at 0.33 μM, read-out: HSV-1 suppression 0.33 μM; for log reduction at 5 µM: compound at 5 μM; for log reduction at 1 µM: compound at 1 μM
[1] = test system: C. neoformans var. grubii, KN99; assay: C. neoformans growth inhibition assay (limiting dilution); type: cell-based, Cryptococcus neoformans; conditions: Cryptococcus neoformans
Description: Cell types used for C. neoformans studies. All inhibition assays were performed with C. neoformans var. grubii, KN99 (serotype A, MAT). Two clinical strains of C. neoformans var. grubii, serotype A, were provided by Tamara Doering and Andre Spec. […] Cells were diluted to OD650 0.001 in YNB-02 02 (0.67% yeast nitrogen base, 0.2% dextrose, pH 7.0 with 50 mM MOPs)+1% DMSO prior to addition to the plates for the inhibition assays.
C. neoformans growth inhibition assays. Compounds were tested in a limiting dilution assay with a starting optical density (at 650 nm) of 0.001 in YNB-02 plus 1% DMSO. Cells plus compound were incubated in 96-well clear round bottom plates covered with a Breath-easy® membrane without shaking for 48 hours at 35° C. Before measuring cell density, plates were shaken on a microtiter plate shaker at 900 rpm for 3 minutes to resuspend cells and optical density was measured at 650 nm. […] Each assay was done in triplicate and all values are the average of two or more independent assays. The data are presented as the average cell density as a percent of DMSO-only treated cells. MICs are reported as the minimal concentration needed to inhibit 80% of C. neoformans growth relative to vehicle-treated controls.

in vitro = conditions: human, HepDES19 cells
human RNaseH1 = target: T1, human RNaseH1 (Homo sapiens, UniProt O60930); assay: Biochemical inhibition of human RNaseH1 activity
T1 sequence (O60930 1-286): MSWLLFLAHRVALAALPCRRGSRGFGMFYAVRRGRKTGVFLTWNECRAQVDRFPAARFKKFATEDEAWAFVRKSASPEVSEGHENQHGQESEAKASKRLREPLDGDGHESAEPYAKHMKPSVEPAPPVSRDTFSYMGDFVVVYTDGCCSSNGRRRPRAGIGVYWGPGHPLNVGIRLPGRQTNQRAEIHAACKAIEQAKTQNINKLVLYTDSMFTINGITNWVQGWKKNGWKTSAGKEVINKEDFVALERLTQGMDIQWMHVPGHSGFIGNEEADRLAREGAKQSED
Description: Biochemical inhibition of human RNaseH1 activity. Quantitative inhibition of the human RNaseH1 in the biochemical assays was assessed using a molecular beacon assay as described previously (Edwards et al., 2017). Recombinant human RNaseH 1 (0.3 μg) was incubated with 100 nM RNA:DNA substrate, 50 mM HEPES pH 8.0, 100 mM NaCl, 2 mM Tris(2-carboxyethyl)phosphine hydrochloride (TCEP), 0.05% Tween20, 5 units of RNaseOut, test compounds (0 to 500 μM), and 5% DMSO in a 100 μL reaction volume. The substrate was formed by annealing a complementary RNA oligonucleotide to a hairpin DNA oligonucleotide to hold the hairpin DNA oligonucleotide in an open conformation. The DNA oligonucleotide has a 5′ fluorescein reporter and a 3′ black hole quencher. When the RNA is degraded from the substrate the DNA oligonucleotide closes to form a hairpin structure, decreasing in signal intensity. Reactions were initiated with 5 mM MgCl2 and fluorescence was read using a Synergy HTS multi-mode plate reader at 37° C. Alternatively, the HBV RNaseH version used was MBP-HRHgtCΔ5, a genotype C isolate which lacks the C-terminal 35 amino acids of the HBV RNaseH domain that are predicted to be unstructured. Quantitative inhibition of the human RNaseH1 in biochemical assays was assessed using a FRET-based RNaseH assay under conditions previously reported for an RNaseH molecular beacon assay (Edwards et al., 2017). […] Cleavage of the RNA strand released the fluorescein from quenching, increasing fluorescence. Reactions were monitored for 90 min at 37° C. in a plate reader and initial reaction rates were calculated. Reactions contained escalating concentrations of the compounds.

[2] = HepDES19, read-out: HBV EC50, Table 3 sulfur compounds, HBV replication, HepDES19 cells
[3] = Table 3 sulfur compounds, read-out: HSV-1 suppression 5 μM
[4] = 48 h, Table 3 sulfur compounds, 48 h, 35° C., read-out: C. neoformans MIC80
[5] = CC50, Table 3 sulfur compounds, MTT
[6] = Table 3 sulfur compounds, read-out: HSV-1 suppression 1 μM
[7] = read-out: MIC80 against C. neoformans
[8] = Table 2 amides, read-out: HuRH1 IC50
[9] = Table 2 amides, read-out: HSV-1 suppression 5 μM
[10] = 48 h, Table 2 amides, 48 h, 35° C., tested 0.19 to 50 μM, read-out: C. neoformans MIC80
[11] = Table 2 amides, read-out: HSV-1 suppression 1 μM

SMILES	EC50 (HBV replication; [2]) [µM]	log reduction at 5 µM (HSV-1; [3])	MIC80 [1, 4] [µM]	CC50 at 24 h (in vitro; [5]) [µM]	log reduction at 1 µM (HSV-1; [6])	other results
Cc1cc(O)c(=O)c(O)cc1S(=O)(=O)c1ccccc1 [compound 336]	0.68	1.57	50 (≈ 14.6 µg/mL)	–	–	log reduction at 0.33 µM (HSV-1; Table 3 sulfur compounds): 0.13
Cc1cc(O)c(=O)c(O)cc1S(=O)(=O)c1ccc(-c2ccccc2)cc1 [compound 337]	5.73	–	50 (≈ 18.4 µg/mL)	47.4	–	log reduction at 0.33 µM (HSV-1; Table 3 sulfur compounds): 0.28
Cc1ccc(S(=O)(=O)c2cc(O)c(=O)c(O)cc2C)cc1 [compound 367]	16.1	0.49	24 (≈ 7.35 µg/mL)	23	0	–
CS(=O)(=O)c1ccc(O)c(=O)c(O)c1 [compound 382]	0.58	–	50 (≈ 10.8 µg/mL)	79.5	–	Therapeutic index (CC50/EC50) for HBV (TI, SI) (HBV replication): 136
CSc1cccc(O)c(=O)c1O [compound 385]	4.4	2.5	24 (≈ 4.42 µg/mL)	100	–	CC50 at 24 h (in vitro; CC50): 100 µM
CSc1ccc(SC)c(O)c(=O)c1O [compound 386]	6.73	0.51	24 (≈ 5.53 µg/mL)	68.9	–	–
CS(=O)(=O)c1cccc(O)c(=O)c1O [compound 387]	0.41	0.02	50 (≈ 10.8 µg/mL)	–	–	EC50 (HBV replication; HepDES19, read-out: EC50 against HBV replication): 0.41 µM
O=c1c(O)cccc(S(=O)(=O)c2ccccc2)c1O [compound 408]	11.1	0.56	50 (≈ 13.9 µg/mL)	20.4	–	–
CCCCS(=O)(=O)c1cccc(O)c(=O)c1O [compound 535]	2.02	–	50 (≈ 12.9 µg/mL)	19.2	0.07	–
CCCCS(=O)(=O)c1ccc(S(=O)(=O)CCCC)c(O)c(=O)c1O [compound 536]	50	0.35	50 (≈ 18.9 µg/mL)	100	0.09	CC50 at 24 h (in vitro; CC50): 100 µM
CC(C)S(=O)(=O)c1cccc(O)c(=O)c1O [compound 537]	0.51	–	50 (≈ 12.2 µg/mL)	20.6	0.25	Therapeutic index (CC50/EC50) for HBV (TI, SI) (HBV replication): 41
CC(C)S(=O)(=O)c1ccc(S(=O)(=O)C(C)C)c(O)c(=O)c1O [compound 538]	50	0.21	50 (≈ 17.5 µg/mL)	100	0.74	CC50 at 24 h (in vitro; CC50): 100 µM
CCCCSc1cccc(O)c(=O)c1O [compound 693]	47.3	5.64	0.9 (≈ 0.204 µg/mL)	13.5	0.25	MIC80 [1, 7]: ≤ 1 µM
CC(C)Sc1cccc(O)c(=O)c1O [compound 695]	26.8	2.28	1.6 (≈ 0.34 µg/mL)	21.1	-0.23	–
CC(C)Sc1ccc(SC(C)C)c(O)c(=O)c1O [compound 696]	12.7	5.82	1.4 (≈ 0.401 µg/mL)	9.3	0.08	log reduction at 0.33 µM (HSV-1; Table 3 sulfur compounds): -0.06
Cc1ccc(S(=O)(=O)c2cccc(O)c(=O)c2O)cc1 [compound 697]	49.1	0.01	49 (≈ 14.3 µg/mL)	35.3	–	–
CCCCCCS(=O)(=O)c1cccc(O)c(=O)c1O [compound 699]	6.83	4.39	10 (≈ 2.86 µg/mL)	13.1	0.2	–
CCCCCCS(=O)(=O)c1ccc(S(=O)(=O)CCCCCC)c(O)c(=O)c1O [compound 700]	49.8	2.01	50 (≈ 21.7 µg/mL)	46	0.57	log reduction at 0.33 µM (HSV-1; Table 3 sulfur compounds): 0.49; Inhibition of HSV-1 (HSV-1; in words): showed inhibition of HSV-1
O=c1c(O)cccc(SCc2ccccc2)c1O [compound 702]	25	5.79	0.56 (≈ 0.146 µg/mL)	–	3.23	IC50 (human RNaseH1; Table 3 sulfur compounds, read-out: Hu RNaseH IC50): 31.7 µM; log reduction at 0.33 µM (HSV-1; Table 3 sulfur compounds): 0.13; MIC80 [1, 7]: ≤ 1 µM
O=c1c(O)c(S(=O)(=O)Cc2ccccc2)ccc(S(=O)(=O)Cc2ccccc2)c1O [compound 706]	51.4	0.59	49 (≈ 21.9 µg/mL)	73	–	–
CCCCCCSc1ccc(SCCCCCC)c(O)c(=O)c1O [compound 841]	10.7	–	–	7.8	–	log reduction at 1 µM (HSV-1; read-out: HSV-1 suppression 1 μM, Table 3 sulfur compounds): 4.99; log reduction at 5 µM (HSV-1; read-out: HSV-1 suppression 5 μM, Table 3 sulfur compounds): 4.77; MIC80 ([1]; 48 h, read-out: C. neoformans MIC80, Table 3 sulfur compounds, 48 h, 35° C.): 5 µM (≈ 1.85 µg/mL)
Cc1cc(O)c(=O)c(O)cc1C(=O)NCCNS(=O)(=O)c1ccc(C(F)(F)F)cc1 [compound 874]	–	–	–	–	–	IC50 (human RNaseH1; [8]): 52.6 µM; log reduction at 5 µM (HSV-1; [9]): -0.15; MIC80 [1, 10]: 14 µM (≈ 6.25 µg/mL); CC50 at 24 h (in vitro; CC50 (μM), Table 2 amides, MTT): 17.7 ± 6.7 µM
Cc1cc(O)c(=O)c(O)cc1C(=O)N1CCN(C(=O)c2ccc(Cl)cc2)CC1 [compound 875]	–	–	–	–	–	IC50 (human RNaseH1; [8]): 17.2 ± 11 µM; log reduction at 1 µM (HSV-1; [11]): 0.0449; log reduction at 5 µM (HSV-1; [9]): 1.32; MIC80 [1, 10]: 7 µM (≈ 2.82 µg/mL); CC50 at 24 h (in vitro; CC50 (μM), Table 2 amides, MTT): 4.7 ± 1.8 µM
COc1ccc(C(=O)N2CCN(C(=O)c3cc(O)c(=O)c(O)cc3C)CC2)cc1 [compound 877]	–	–	–	–	–	IC50 (human RNaseH1; [8]): 34.9 ± 7.2 µM; log reduction at 1 µM (HSV-1; [11]): -0.232; log reduction at 5 µM (HSV-1; [9]): 0.175; MIC80 [1, 10]: 14 µM (≈ 5.58 µg/mL); CC50 at 24 h (in vitro; CC50 (μM), Table 2 amides, MTT): 16.5 ± 1.4 µM
